Measured values taken from the supplement of paper PMC7600603.

Tests used:
[1] = system: DLD1 NRF2-GOF; assay: TC50 cytotoxicity; higher = less toxic; conditions: 72 h; CellTox Green cytotoxicity
In short: (§1)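 Isogenic DLD1 colorectal cancer cells, either NRF2 wild-type or CRISPR gain-of-function, were grown in DMEM with 10% FBS. They were exposed in 384-well plates to library compounds at 5 concentrations spanning a 10,000-fold range. After 72 h, cytotoxicity was read by CellTox Green on a Pherastar FS reader and normalised to vehicle wells and 100-μM positive-control wells. TC50 and drug sensitivity score (a normalised area under the curve) came from logistic dose-response fits.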

[2] = system: DLD1 NRF2-WT; assay: TC50 cytotoxicity; higher = less toxic; conditions: 72 h; CellTox Green cytotoxicity
In short: as §1

[3] = system: DLD1 NRF2-GOF; assay: drug sensitivity score (DSS) cytotoxicity (DSS score); higher = more toxic; extreme values may be limits of the assay; conditions: 72 h; CellTox Green cytotoxicity
In short: as §1

[4] = system: DLD1 NRF2-WT; assay: as above; conditions: 72 h; CellTox Green cytotoxicity
In short: as §1

[5] = system: DLD1 NRF2-WT; conditions: 72 h; CellTiter-Glo viability
In short: (§2)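 DLD1 colorectal cancer cells, an isogenic pair either NRF2 wild-type or carrying a CRISPR gain-of-function, were cultured in DMEM with 10% FBS and treated in 384-well plates with library compounds at 5 concentrations across a 10,000-fold range. CellTiter-Glo viability was read on a Pherastar FS reader after 72 h and normalised to vehicle wells and 100-μM positive-control wells. Four-parameter logistic dose-response fits were applied. EC50 and drug sensitivity score, a normalised area under the curve, were taken from these fits.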

[6] = system: DLD1 NRF2-WT; assay: drug sensitivity score (DSS) viability (DSS score); higher = more sensitive; extreme values may be limits of the assay; conditions: 72 h; CellTiter-Glo viability
In short: as §2

[7] = system: DLD1 NRF2-GOF; assay: as above; conditions: 72 h; CellTiter-Glo viability
In short: as §2

Question: With `CN1CCC(CNc2ccc3ncc(-c4cccc(OC(F)(F)F)c4)n3n2)CC1` [SGI-1776] as the compound, how does the TC50 cytotoxicity [1] read?
Answer: 3.14 µM

Question: What about the TC50 cytotoxicity [2] of the same compound?
Answer: 2.68 µM

Question: What about the drug sensitivity score [3] of the same compound?
Answer: 3.1

Question: What about the drug sensitivity score [4] of the same compound?
Answer: 4.5

Question: What about the EC50 viability [5] of the same compound?
Answer: 3.47 µM

Question: And the drug sensitivity score [6]?
Answer: 5

Question: `C[C@H]1C[C@@H]2[C@H]([C@@H](O)C[C@@]3(C)[C@H]2CC[C@]3(O)C(=O)CO)[C@@]2(C)C=CC(=O)C=C12` [Methylprednisolone] was tested. Which TC50 cytotoxicity [1] did it give?
Answer: > 10 µM

Question: What about the TC50 cytotoxicity [2] of the same compound?
Answer: > 10 µM

Question: And the drug sensitivity score [3]?
Answer: 0

Question: What about the drug sensitivity score [4] of the same compound?
Answer: 0

Question: And the drug sensitivity score [7]?
Answer: 2.9

Question: How did the TC50 cytotoxicity [1] turn out when `CCC(C)n1ncn(-c2ccc(N3CCN(c4ccc(OCC5COC(Cn6cncn6)(c6ccc(Cl)cc6Cl)O5)cc4)CC3)cc2)c1=O` (centres undefined) [Itraconazole] was run?
Answer: > 5 µM

Question: What about the TC50 cytotoxicity [2] of the same compound?
Answer: > 5 µM

Question: And the drug sensitivity score [3]?
Answer: 0

Question: What about the drug sensitivity score [4] of the same compound?
Answer: 0

Question: What about the EC50 viability [5] of the same compound?
Answer: > 5 µM

Question: And the drug sensitivity score [6]?
Answer: 0.4

Question: For `C=CC(=O)Nc1cccc(Oc2nc(Nc3ccc(N4CCN(C)CC4)cc3)nc3ccsc23)c1` [Olmutinib], which TC50 cytotoxicity [1] is on record?
Answer: > 1 µM

Question: And the TC50 cytotoxicity [2]?
Answer: > 1 µM

Question: And the drug sensitivity score [3]?
Answer: 0

Question: And the drug sensitivity score [4]?
Answer: 0

Question: What about the drug sensitivity score [7] of the same compound?
Answer: 2.8

Question: And the drug sensitivity score [6]?
Answer: 2.6

Question: With `O=C(CCNC(=O)c1ccc(OC(F)(F)F)cc1)N[C@@H]1CCCc2ccccc21` [ML390] as the compound, how does the TC50 cytotoxicity [1] read?
Answer: > 50 µM

Question: And the TC50 cytotoxicity [2]?
Answer: > 50 µM

Question: And the drug sensitivity score [3]?
Answer: 0

Question: What about the drug sensitivity score [4] of the same compound?
Answer: 0

Question: And the EC50 viability [5]?
Answer: > 50 µM

Question: What about the drug sensitivity score [6] of the same compound?
Answer: 1.9

Question: Which TC50 cytotoxicity [1] does the source give for `C=C1C[C@@H]2CC[C@@]34C[C@H]5O[C@H]6[C@@H](O3)[C@H]3O[C@H](CC[C@@H]3O[C@H]6[C@H]5O4)CC(=O)C[C@@H]3[C@@H](OC)[C@@H](C[C@H](O)CN)O[C@H]3C[C@H]3O[C@@H](CC[C@@H]1O2)C[C@@H](C)C3=C` [Eribulin] here?
Answer: > 1 µM

Question: What about the TC50 cytotoxicity [2] of the same compound?
Answer: > 1 µM

Question: What about the drug sensitivity score [3] of the same compound?
Answer: 4.4

Question: What about the drug sensitivity score [4] of the same compound?
Answer: 3.3

Question: And the EC50 viability [5]?
Answer: 0.0051 µM

Question: What about the drug sensitivity score [6] of the same compound?
Answer: 22.6

Question: Which TC50 cytotoxicity [1] does the source give for `O=C(Nc1ccc2[nH]nc(-c3ccncc3)c2c1)[C@@H]1CCN(CC(=O)N2CCN(c3ccc(-c4ncccn4)cc3)CC2)C1` here?
Answer: > 10 µM

Question: And the TC50 cytotoxicity [2]?
Answer: > 10 µM

Question: And the drug sensitivity score [3]?
Answer: 0

Question: What about the drug sensitivity score [4] of the same compound?
Answer: 0

Question: And the EC50 viability [5]?
Answer: 0.688 µM

Question: And the drug sensitivity score [6]?
Answer: 6.6

Question: What does the source list for `COc1cc(OC2CCN(C)CC2)ccc1Nc1ncc2c(n1)n(C1CCCC1)c(=O)n2C` [AZ 3146]?
Answer: TC50 cytotoxicity [1]: > 10 µM; TC50 cytotoxicity [2]: 1.58 µM; drug sensitivity score [3]: 1.6; drug sensitivity score [4]: 2.5; EC50 viability [5]: 1.25 µM; drug sensitivity score [6]: 8

Question: Which results are given for `C[C@H]1C[C@@H](n2c(Nc3ccc(OC(F)(F)F)cc3)nc3cc(CCC(=O)O)ccc32)CC(C)(C)C1`?
Answer: TC50 cytotoxicity [1]: > 10 µM; TC50 cytotoxicity [2]: > 10 µM; drug sensitivity score [3]: 0; drug sensitivity score [4]: 0; EC50 viability [5]: > 10 µM; drug sensitivity score [6]: 0.3

Question: For `COc1cc(Nc2ncc(F)c(Nc3ccc4c(n3)NC(=O)C(C)(C)O4)n2)cc(OC)c1OC` [Tamatinib], which TC50 cytotoxicity [1] is on record?
Answer: > 10 µM

Question: What about the TC50 cytotoxicity [2] of the same compound?
Answer: > 10 µM

Question: What about the drug sensitivity score [3] of the same compound?
Answer: 0

Question: And the drug sensitivity score [4]?
Answer: 0

Question: And the EC50 viability [5]?
Answer: > 10 µM

Question: And the drug sensitivity score [6]?
Answer: 1

Question: Which EC50 viability [5] does the source give for `OC[C@H]1O[C@@H](n2cnc3c2N=CNC[C@H]3O)C[C@@H]1O` [Pentostatin] here?
Answer: 1.86 µM

Question: What about the drug sensitivity score [7] of the same compound?
Answer: 1.6

Question: What about the drug sensitivity score [6] of the same compound?
Answer: 2.5

Question: How did the TC50 cytotoxicity [1] turn out when `Cc1nc(C(=O)NCC(=O)O)c(O)c2ccc(Oc3ccccc3)cc12` [Roxadustat] was run?
Answer: > 10 µM

Question: And the TC50 cytotoxicity [2]?
Answer: > 10 µM

Question: What about the drug sensitivity score [3] of the same compound?
Answer: 0

Question: And the drug sensitivity score [4]?
Answer: 0

Question: What about the EC50 viability [5] of the same compound?
Answer: 1.69 µM

Question: And the drug sensitivity score [6]?
Answer: 2.5

Question: For `CC(C)(C)c1cc(NC(=O)Nc2ccc(Oc3ccnc4[nH]c(=O)cnc34)cc2F)n(-c2ccccc2)n1`, which TC50 cytotoxicity [1] is on record?
Answer: > 25 µM

Question: What about the TC50 cytotoxicity [2] of the same compound?
Answer: > 25 µM

Question: And the drug sensitivity score [3]?
Answer: 0

Question: What about the drug sensitivity score [4] of the same compound?
Answer: 1.1

Question: And the EC50 viability [5]?
Answer: 3.11 µM

Question: And the drug sensitivity score [6]?
Answer: 9.8
